Reference: patent US11702442B2, “Cyclic dinucleotide compounds as sting agonists” (The Regents of the University of California, priority 2019, dated 2023)
“Also recorded” adds a separate entry of the source.

Experiments:
[1] = system: STING pathway; experiment: IRF3 phosphorylation in RAW 264.7 cells (immunoblot pIRF3 vs β-actin); type: cell-based, murine; conditions: 2 h after transfection; for IRF3 phosphorylation (pIRF3), concentration dependence: RAW 264.7, 1, 5 and 10 μM CDN
Method: FIGS. 2A-2B show IRF3 phosphorylation induced by c-di-GMP and its analogues. […] 1, 5 and 10 μM of each CDN was used to transfect RAW 264.7 cells. Cells were lysed with NP-40 lysis buffer 2 h post transfection, 20 μg of total protein was loaded on SDS-polyacrylamide gel. Proteins were transferred to PVDF membrane after gel electrophoresis, and immunoblotted against pIRF3 and β-actin. […] The y-axis indicates relative intensity of pIRF3 compare to β-actin.
To analyze the immunostimulatory effects of all synthetic CDNs in greater detail, RAW 264.7 cells were treated with various concentrations of c-di-GMP, c-di-tzGMP, c-di-thGMP, c-GthGMP and c-GtzGMP and the phosphorylation of IRF3 to pIRF3 was evaluated. CDNs were thus transfected into RAW 264.7 murine cells with digitonin as described in previous studies.[7b,16] Cells were then lysed with NP-40 buffer 2 h after transfection, and total protein was collected for immunoblotting against phosphorylated IRF3 (pIRF3) and β-actin. […] Two other biological replicates produced similar trends (See FIG. S2 in Yi et al, ChemBioChem, Volume 21 (2020)).
Immunoblotting. RAW 264.7 cells were plated on 24-well plates (5×10^5 cells per well) and incubate at 37° C. for 48 h. Cells were then transfected with 1-10 μM of CDN in a permeabilization buffer containing 10 μg/mL digitonin, 50 mM HEPES, pH 7, 100 mM KCl, 3 mM MgCl2, 85 mM sucrose, 1 mM ATP, 0.1 mM DTT, 0.2% BSA for 30 mins at 37° C., then incubated with regular growth medium for 2 h. Cells were lysed with NP-40 lysis buffer containing protease inhibitor cocktail (Roche), PhosSTOP (Roche) and PMSF, and total protein was collected and quantified by BCA assay. Protein extracts were resolved by SDS-PAGE with 7.5% gel and transferred to PVDF membrane. Proteins were detected with the following primary antibodies: rabbit anti-pIRF3 monoclonal antibody (Cell Signaling Technology), mouse anti-β actin monoclonal antibody (Sigma-Aldrich).

[2] = target: T1, rocR (Pseudomonas aeruginosa, UniProt Q9HX69); experiment: rocR-mediated CDN hydrolysis monitored by HPLC; type: biochemical, P. aeruginosa; conditions: for k2 / k3 / k1 / k2 (cleavage reaction) / time to complete cleavage by rocR: 100 nM rocR, 37° C.; for k2 / k3: Table 3; for k1: enzyme/substrate association; for order of gradually reduced rocR hydrolysis rate: FIG. 10F
T1 construct: made in house; host or cells: Escherichia coli BL21(DE3)
T1 sequence (Q9HX69 whole entry): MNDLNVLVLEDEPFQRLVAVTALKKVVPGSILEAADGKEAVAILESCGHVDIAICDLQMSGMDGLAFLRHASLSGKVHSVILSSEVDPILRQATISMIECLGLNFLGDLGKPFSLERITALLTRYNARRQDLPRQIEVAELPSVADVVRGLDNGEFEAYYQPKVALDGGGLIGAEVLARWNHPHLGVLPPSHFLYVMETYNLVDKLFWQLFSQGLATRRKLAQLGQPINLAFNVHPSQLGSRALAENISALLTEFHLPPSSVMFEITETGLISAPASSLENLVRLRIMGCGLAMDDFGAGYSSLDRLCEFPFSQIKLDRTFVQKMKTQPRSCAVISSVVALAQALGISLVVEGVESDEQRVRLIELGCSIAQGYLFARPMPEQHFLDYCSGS
Excerpt: [1a,27] rocR is a PDE that contains an EAL domain and specifically recognizes and cleaves c-di-GMP into the linear dinucleotide pGpG. […] [28a,29]
RocR is reported to follow Michaelis-Menten kinetics. [27c,28a] Scheme 2a was therefore used to analyze the reaction kinetics, where k1 and k−1 describe the enzyme/substrate association and dissociation, respectively, while k2 reflects the cleavage reaction. Equations (10)-(13) were thus used to extract the rate constants. When “asymmetrical” mixed c-di-GMP analogues are treated with rocR, the enzyme may, in principle, recognize and cleave either phosphodiester bonds, producing pN1pN2 and pN2pN1. Assuming the two products result from different binding orientation of the heterodimeric CDNs, Scheme 2b is therefore introduced to model the cleavage reactions, where k1, k−1 and k2 reflect the association/dissociation and cleavage of the heterodimeric CDN in one orientation, respectively, and k3, k−3 and k4 reflect the other. Equations (14)-(19) were used to extract the rate constants.
Equations(10)-(19) d[S]/dt=−k1[E][S]+k−1[ES] (10) d[E]/dt=−k1[E][S]+k−1[ES]+k2[ES] (11) d[P]/dt=k2[ES] (12) d[ES]/dt=k1[E][S]−k−1[ES]−k2[ES] (13) d[S]/dt=−k1[E][S]+k−1[ES1]−k3[E][S]+k−3[ES2] (14) d[P1]/dt=k2[ES1] (15) d[P2]/dt=k4[ES2] (16) d[E]/dt=−(k1+k3)[E][S]+(k−1+k2)[ES1]+[…][ES2]] (17) d[ES1]/dt=k1[E][S]−k−1[ES1]−k2[ES1] (18) d[ES2]/dt=k3[E][S]−k−3[ES2]−k4[ES2] (19)
CDN hydrolysis with rocR. […] of CDN was incubated with 100 nM of rocR in a buffer containing 100 mM Tris-HCI, pH 8, 20 mM KCI, 25 mM MgCl2 at 37° C. Aliquots of the reaction mixture were taken out at designated time points and quenched with 100 mM CaCl2. All aliquots were filtered before subjected to reverse-phase HPLC analysis. The reaction mixture was separated by Sepax Bio C-18 column (250×10 mm, 5 µm particle size) with a gradient of 0.1-15% of 10 mM NH4OAc, pH7 in Me0H in 12 minutes at 25° C. or 50° C. (only for reactions of c-GtzGMP and c-di-tzGMP) on an Agilent 1200 series HPLC system (Agilent Technologies).
Data Analysis and curve fitting. […] The relative concentrations were plotted against time.

SMILES: Nc1nc2c([C@@H]3O[C@@H]4COP(=O)(O)O[C@H]5[C@@H](O)[C@H](n6cnc7c(=O)[nH]c(N)nc76)O[C@@H]5COP(=O)(O)O[C@H]4[C@H]3O)scc2c(=O)[nH]1 [c-G^thGMP]
- IRF3 phosphorylation (pIRF3), concentration dependence [1]: no clear dose-response
- k2 [2]: 0.033 ± 0.001 s⁻¹
- k3 [2]: 5 ± 0.57 s⁻¹
- k1 [2]: 21000 ± 1000 M⁻¹ s⁻¹
- order of gradually reduced rocR hydrolysis rate [2]: c-di-GMP, c-di-^tzGMP, c-G^tzGMP, c-G^thGMP and lastly c-di-^thGMP
- products of rocR-mediated cleavage ([2]; mixed CDNs, HPLC): a single product

SMILES: Nc1nc2c(ncn2[C@@H]2O[C@@H]3COP(=O)(O)O[C@H]4[C@@H](O)[C@H](n5cnc6c(=O)[nH]c(N)nc65)O[C@@H]4COP(=O)(O)O[C@H]3[C@H]2O)c(=O)[nH]1 [c-di-GMP, reference compound]
- IRF3 phosphorylation (pIRF3) ([1]; RAW 264.7, 1 μM CDN): did not induce obvious IRF3 activation
- IRF3 phosphorylation (pIRF3) ([1]; RAW 264.7, 5 and 10 μM CDN): comparable efficiency in inducing IRF3 phosphorylation
- k2 (cleavage reaction) [2]: 0.76 ± 0.03 s⁻¹
- time to complete cleavage by rocR [2]: ~3 min
- k2 [2]: 1.15 ± 0.21 s⁻¹
- k3 [2]: 0.76 ± 0.03 s⁻¹
- k1 [2]: 3.96e+06 ± 70000 M⁻¹ s⁻¹
- order of gradually reduced rocR hydrolysis rate [2]: c-di-GMP, c-di-^tzGMP, c-G^tzGMP, c-G^thGMP and lastly c-di-^thGMP

SMILES: Nc1nc2c([C@@H]3O[C@@H]4COP(=O)(O)O[C@H]5[C@@H](O)[C@H](c6scc7c(=O)[nH]c(N)nc67)O[C@@H]5COP(=O)(O)O[C@H]4[C@H]3O)scc2c(=O)[nH]1 [c-di-^thGMP]
- IRF3 phosphorylation (pIRF3), concentration dependence [1]: did not trigger observable IRF3 activation at any of the concentrations tested
- order of gradually reduced rocR hydrolysis rate [2]: c-di-GMP, c-di-^tzGMP, c-G^tzGMP, c-G^thGMP and lastly c-di-^thGMP
- cleavage by rocR ([2]; after 40 min of incubation with rocR): No cleaved c-di-^thGMP was observed; also recorded: did not produce observable amounts of cleaved c-di-^thGMP products

SMILES: Nc1nc2c([C@@H]3O[C@@H]4COP(=O)(O)O[C@H]5[C@@H](O)[C@H](c6snc7c(=O)[nH]c(N)nc67)O[C@@H]5COP(=O)(O)O[C@H]4[C@H]3O)snc2c(=O)[nH]1 [c-di-^tzGMP]
- IRF3 phosphorylation (pIRF3), concentration dependence [1]: Increasing amounts of phosphorylated IRF3
- k2 (cleavage reaction) [2]: 0.83 ± 0.55 s⁻¹
- time to complete cleavage by rocR [2]: ≤ 20 min
- k2 [2]: 0.099 ± 0.07 s⁻¹
- k3 [2]: 0.83 ± 0.55 s⁻¹
- k1 [2]: 43000 ± 20000 M⁻¹ s⁻¹
- order of gradually reduced rocR hydrolysis rate [2]: c-di-GMP, c-di-^tzGMP, c-G^tzGMP, c-G^thGMP and lastly c-di-^thGMP
